Measurements from patent publication US7534421B2, “s-Triazine compounds bearing at least one para-aminobenzalmalonic salt substituent and photoprotective cosmetic compositions comprised thereof” (L'Oreal, priority 2003, dated 2009).
Counter-ions that a name gives are not always drawn.

Experiment: UV absorption spectrum (λmax, εmax, E1%) of the s-triazine UV screens in solution
Type: physicochemical
Conditions: UV (DMSO/ethanol)

For `O=C(O)C(=Cc1ccc(Nc2nc(O)nc(Nc3ccc(C=C(C(=O)O)C(=O)O)cc3)n2)cc1)C(=O)O` [2-(4-{4-[4-(2,2-dicarboxyvinyl)phenylamino]-6-hydroxy[1,3,5]triazin-2-ylamino}benzylidene)malonic acid], which E1% is on record?
The E1% was “E1% = 691”.

What about the εmax of the same compound?
Its εmax is “εmax = 35 070”.

And the λmax?
Its λmax is “λmax = 336 nm”.

Same assay, conditions: UV (NaOH 0.1 N)

With `O=C(O)C(=Cc1ccc(Nc2nc(Cl)nc(Nc3ccc(C=C(C(=O)O)C(=O)O)cc3)n2)cc1)C(=O)O` [2-(4-{4-chloro-6-[4-(2,2-dicarboxy-vinyl)phenylamino][1,3,5]triazin-2-ylamino}benzylidene)malonic acid] as the compound, how does the E1% read?
The E1% was “E1% = 932”.

And the εmax?
The εmax was “εmax = 64 960”.

What about the λmax of the same compound?
The λmax was “λmax = 320 nm”.

Which E1% does the source give for `O=C(O)C(=Cc1ccc(Nc2nc(O)nc(Nc3ccc(C=C(C(=O)O)C(=O)O)cc3)n2)cc1)C(=O)O` [Example 5, tetrasodium salt of 2-(4-{4-[4-(2,2-dicarboxyvinyl)phenylamino]-6-hydroxy[1,3,5]triazin-2-ylamino}benzylidene)malonic acid] here?
The E1% was “E1% = 852”.

And the εmax?
The εmax was “εmax = 50 700”.

And the λmax?
The λmax was “λmax = 322 nm”.

Same assay, conditions: UV (ethanol)

What does the source list for `O=C(O)C(=Cc1ccc(Nc2nc(Nc3ccc(C=C(C(=O)O)C(=O)O)cc3)nc(Nc3ccc(C=C(C(=O)O)C(=O)O)cc3)n2)cc1)C(=O)O` [acid derivative of Example 1, 2-(4-[4,6-bis[4-(2,2-dicarboxyvinyl)phenylamino][1,3,5]triazin-2-ylamino}benzylidene)malonic acid]?
E1%: E1% = 930; εmax: εmax = 64 820; λmax: λmax = 348 nm

Same assay, conditions: UV (water)

Which results are given for `COc1ccc(-c2nc(Nc3ccc(C=C(C(=O)O)C(=O)O)cc3)nc(Nc3ccc(C=C(C(=O)O)C(=O)O)cc3)n2)cc1` [Example 6, tetrasodium salt of 2-{4-[4-[4-(2,2-dicarboxyvinyl)phenylamino]-6-(4-methoxyphenyl)[1,3,5]triazin-2-ylamino]benzylidene}malonic acid]?
E1%: E1% = 768; εmax: εmax = 45 900; λmax: λmax = 318 nm

With `CCCCOc1nc(Nc2ccc(C=C(C(=O)O)C(=O)O)cc2)nc(Nc2ccc(C=C(C(=O)O)C(=O)O)cc2)n1` [Example 7, tetrasodium salt of 2-(4-{4-butoxy-6-[4-(2,2-dicarboxyvinyl)phenylamino][1,3,5]triazin-2-ylamino}benzylidene)malonic acid] as the compound, how does the E1% read?
The E1% was “E1% = 922”.

What about the εmax of the same compound?
The εmax was “εmax = 51 960”.

And the λmax?
The λmax was “λmax = 317 nm”.

Which E1% does the source give for `CC12CCC(/C(=C\c3ccc(Nc4nc(Nc5ccc(C=C(C(=O)O)C(=O)O)cc5)nc(Nc5ccc(/C=C6/C(=O)C7(C)CCC6C7(C)C)cc5)n4)cc3)C1=O)C2(C)C` [Example 11, disodium salt of 2-(4-{[4,6-bis({4-(4,7,7-trimethyl-3-oxobicyclo[2.2.1]hept-2-ylidene)methyl]phenyl}amino)[1,3,5]triazin-2-ylamino}benzylidene)malonic acid] here?
The E1% was “E1% = 1 238”.

And the εmax?
The εmax was “εmax = 98 170”.

What about the λmax of the same compound?
The λmax was “λmax = 353 nm”.

For `O=C(O)C(=Cc1ccc(Nc2nc(Nc3ccc(C=C(C(=O)O)C(=O)O)cc3)nc(Nc3ccc(C=C(C(=O)O)C(=O)O)cc3)n2)cc1)C(=O)O` [Example 1, hexasodium salt of 2-(4-{4,6-bis[4-(2,2-dicarboxyvinyl)phenylamino][1,3,5]triazin-2-ylamino}benzylidene)malonic acid], which E1% is on record?
Its E1% is “E1% = 1 043”.

What about the εmax of the same compound?
Its εmax is “εmax = 86 428”.

What about the λmax of the same compound?
Its λmax is “λmax = 323 nm”.

Which results are given for `O=C(O)C(=Cc1ccc(Nc2nc(Nc3ccc(C=C(C(=O)O)C(=O)O)cc3)nc(Nc3ccc(C=C(C(=O)O)C(=O)O)cc3)n2)cc1)C(=O)O` [Example 3, hexapotassium salt of 2-(4-{4,6-bis[4-(2,2-dicarboxyvinyl)phenylamino][1,3,5]triazin-2-ylamino}benzylidene)malonic acid]?
E1%: E1% = 720; εmax: εmax = 66 600; λmax: λmax = 324 nm

For `O=C(O)C(=Cc1ccc(Nc2nc(Nc3ccc(C=C(C(=O)O)C(=O)O)cc3)nc(Nc3ccc(C=C(C(=O)O)C(=O)O)cc3)n2)cc1)C(=O)O` [Example 2, hexasodium salt of 2-(4-{4,6-bis[4-(2,2-dicarboxyvinyl)phenylamino][1,3,5]triazin-2-ylamino}benzylidene)malonic acid], which E1% is on record?
The E1% was “E1% = 1 060”.

And the εmax?
Its εmax is “εmax = 87 820”.

What about the λmax of the same compound?
Its λmax is “λmax = 323 nm”.

For `O=C(O)C(=Cc1ccc(Nc2nc(Nc3ccc(C=C(C(=O)O)C(=O)O)cc3)nc(Nc3ccc(C=C(C(=O)O)C(=O)O)cc3)n2)cc1)C(=O)O` [Example 4, hexatriethanolamine salt of 2-(4-{4,6-bis[4-(2,2-dicarboxyvinyl)phenylamino][1,3,5]triazin-2-ylamino}benzylidene)malonic acid], which E1% is on record?
Its E1% is “E1% = 523”.

And the εmax?
Its εmax is “εmax = 83 250”.

What about the λmax of the same compound?
Its λmax is “λmax = 322 nm”.

What does the source list for `O=C(O)/C=C/c1ccc(Nc2nc(Nc3ccc(C=C(C(=O)O)C(=O)O)cc3)nc(Nc3ccc(C=C(C(=O)O)C(=O)O)cc3)n2)cc1` [Example 9, pentasodium salt of 2-(4-{4-[4-(2-carboxyvinyl)phenylamino]-6-[4-(2,2-dicarboxy-vinyl)phenylamino][1,3,5]triazin-2-ylamino}benzylidene)malonic acid]?
E1%: E1% = 1 274; εmax: εmax = 83 070; λmax: λmax = 327 nm

Which results are given for `CC12CCC(/C(=C\c3ccc(Nc4nc(Nc5ccc(C=C(C(=O)O)C(=O)O)cc5)nc(Nc5ccc(C=C(C(=O)O)C(=O)O)cc5)n4)cc3)C1=O)C2(C)C` (stereo not drawn) [Example 10, tetrasodium salt of 2-(4-{4-[4-(2-dicarboxyvinyl)phenylamino]-6-[4-(4,7,7-trimethyl-3-oxobicyclo[2.2.1]hept-2-ylidenemethyl)phenylamino][1,3,5]triazin-2-ylamino}benzylidene)malonic acid]?
E1%: E1% = 963; εmax: εmax = 69 210; λmax: λmax = 329 nm
